{
  "source": "patent US9943518B2",
  "about": "“Inhibitors of phosphodiesterase type 5A for reducing skeletal muscle fatigue, edema, and damage in a patient having muscle fatigue due to increased age or exercise” (University of Iowa Research Foundation, priority 2008, dated 2018)",
  "key": {"[1]": {"test_system": "DGC models of muscular dystrophy", "assay": "Exercise/activity assay in DGC models of muscular dystrophy", "type": "in vivo, mouse", "conditions": "administration prior to exercise"}, "[2]": {"test_system": "DGC models of muscular dystrophy", "assay": "Evans Blue Dye uptake in muscle following exercise", "type": "in vivo, mouse", "conditions": "mice subjected to eccentric contractions"}, "[3]": {"test_system": "mdx mice", "assay": "Exercise-activity assay (mild treadmill exercise, then open-field activity chamber) in mdx mice", "type": "in vivo, mouse", "conditions": "treatment before mild treadmill exercise"}, "[4]": {"test_system": "DGC models of muscular dystrophy", "assay": "Serum creatine kinase following exercise", "type": "in vivo, mouse", "conditions": "mice subjected to eccentric contractions, 2 hours post-exercise", "description": "In the assay, mice are initially placed in an activity cage for thirty minutes, and different activity measurements are measured and monitored during this time frame. The mice are then bled to measure serum creatine kinase (CK) levels and then the mice are injected with Evans Blue Dye. […]. Twenty-four hours later, the mice are then subject to a ten minute exercise protocol on a treadmill with a fifteen degree downhill incline at fifteen meters per minute. Following the exercise protocol, the mice are placed back in the activity cage, and post-exercise activity is measured for thirty minutes. […]\nThe pharmacological screen utilizes an exercise-activity assay to identify compounds that facilitate NO signaling in muscle having mislocalized nNOS. In the assay, mice are initially placed in an activity cage for thirty minutes to measure pre-exercise activity, and different activity measurements are measured and monitored during this time frame. […] Following the exercise protocol, the mice are placed back in the activity cage, and post-exercise activity is measured for thirty minutes. […]\nSerum Creatine Kinase Assays. Blood for quantitative, kinetic determination of serum creatine kinase activity was collected either after the pre-exercise activity analysis or 2 hours post-exercise by mouse tail vein bleeds, using a Sarstedt microvette CB 300, from non-anesthetized restrained mice. […]"}, "[5]": {"test_system": "nNOS-null mice", "assay": "Exercise/activity assay in nNOS-null mice", "type": "in vivo, mouse", "conditions": "administration prior to exercise"}, "[6]": {"biological_target": "PDE5A (Homo sapiens, UniProt O76074)", "assay": "PDE5A inhibition", "type": "biochemical", "conditions": "at plasma concentration from 300 mg/kg/day"}, "[7]": {"test_system": "mammals", "conditions": "Barbato et al. 2005; cited from earlier work"}, "[8]": {"test_system": "wild-type mice", "conditions": "Kinugawa et al. 2005; cited from earlier work"}, "[9]": {"test_system": "wild-type mice", "assay": "Exercise-activity assay in wild-type mice", "type": "in vivo, mouse"}, "[10]": {"test_system": "rats", "conditions": "Wang et al. 2001; cited from earlier work"}, "[11]": {"test_system": "wild-type and mdx mice", "conditions": "Thomas et al. 1998; cited from earlier work"}, "[12]": {"test_system": "dystrophic or nNOS-null mice", "assay": "Exercise-activity assay in dystrophic or nNOS-null mice", "type": "in vivo, mouse"}, "[13]": {"test_system": "wild-type mice", "conditions": "Miki et al. 2002; cited from earlier work"}, "[14]": {"test_system": "human forearm", "conditions": "local intra-arterial infusion, Seddon et al. 2008; cited from earlier work"}},
  "note": "“Also recorded” adds a separate entry of the source.",
  "data": [
    {"molecule": "CCCc1nn(C)c2c(=O)nc(-c3cc(S(=O)(=O)N4CCN(C)CC4)ccc3OCC)[nH]c12", "note": "[sildenafil, 5-[2-ethoxy-5-(4-methylpiperazin-1-yl)sulfonylphenyl]-1-methyl-3-propyl-4H-pyrazolo[5,4-e]pyrimidin-7-one]", "values": [
      {"measurement": "post-exercise activity", "setting": "[1]", "result": "very effective at preventing the loss of activity following exercise; also recorded: dramatically increased post-exercise activity"},
      {"measurement": "Evans Blue Dye uptake in muscle following exercise", "setting": "[2]", "result": "prevent an increase in serum CK and Evans Blue Dye uptake in muscle following exercise"},
      {"measurement": "post-exercise activity / exaggerated fatigue response to mild exercise", "setting": "[3]", "result": "very effective at preventing the exercise-induced fatigue"},
      {"measurement": "serum CK following exercise", "setting": "[4]", "result": "prevent an increase in serum CK"},
      {"measurement": "post-exercise activity", "setting": "[5]", "result": "dramatically increased post-exercise activity"},
      {"measurement": "enzyme activity inhibited", "setting": "[6]", "result": "more than 50%"}
    ]},
    {"molecule": "CC1(C)CC(O)CC(C)(C)N1[O]", "note": "[Tempol]", "values": [
      {"measurement": "post-exercise activity / exaggerated fatigue response to mild exercise", "setting": "[3]", "result": "had no effect on the exaggerated fatigue response"}
    ]},
    {"molecule": "CC(C)Cc1ccc(C(C)C(=O)O)cc1", "note": "(stereo not shown) [ibuprofen]", "values": [
      {"measurement": "post-exercise activity / exaggerated fatigue response to mild exercise", "setting": "[3]", "result": "neither treatment resulted in improved post-exercise activity"}
    ]},
    {"molecule": "CN1CC(=O)N2[C@H](c3ccc4c(c3)OCO4)c3[nH]c4ccccc4c3C[C@@H]2C1=O", "note": "[tadalafil]", "values": [
      {"measurement": "post-exercise activity / exaggerated fatigue response to mild exercise", "setting": "[3]", "result": "very effective at preventing the exercise-induced fatigue"}
    ]},
    {"molecule": "O=C(NCCO[N+](=O)[O-])c1cccnc1", "note": "[nicorandil]", "values": [
      {"measurement": "blood pressure", "setting": "[7]", "result": "significantly reducing blood pressure in mammals"}
    ]},
    {"molecule": "CC(=O)OCC(=O)[C@@]12N=C(C)O[C@@H]1C[C@H]1[C@@H]3CCC4=CC(=O)C=C[C@]4(C)[C@H]3[C@@H](O)C[C@@]12C", "note": "[deflazacort]", "values": [
      {"measurement": "post-exercise activity / exaggerated fatigue response to mild exercise", "setting": "[3]", "result": "neither treatment resulted in improved post-exercise activity; also recorded: did not ameliorate inactivity post-exercise"}
    ]},
    {"molecule": "superoxide dismutase", "values": [
      {"measurement": "post-exercise activity / exaggerated fatigue response to mild exercise", "setting": "[3]", "result": "neither method of SOD exposure had an effect on the exaggerated fatigue response"}
    ]},
    {"molecule": "NC(=NCCC[C@H](N)C(=O)O)N[N+](=O)[O-]", "note": "[L-NNA]", "values": [
      {"measurement": "exercise-induced hyperemia and exercise capacity", "setting": "[8]", "result": "prevents adequate exercise-induced hyperemia and limits exercise capacity during exhaustive treadmill running"}
    ]},
    {"molecule": "COC(=O)[C@@H](N)CCCNC(=N)N[N+](=O)[O-]", "note": "[L-NAME]", "values": [
      {"measurement": "post-exercise activity", "setting": "[9]", "result": "reduced post-exercise activity to levels similar to those in nNOS-null mice post-exercise"},
      {"measurement": "walking speed", "setting": "[10]", "result": "severely reduces walking speed"},
      {"measurement": "femoral blood flow velocity and vascular conductance", "setting": "[11]", "result": "decreases femoral blood flow velocity and vascular conductance"},
      {"measurement": "mean arterial pressure", "setting": "[11]", "result": "increases mean arterial pressure"},
      {"measurement": "post-exercise activity", "setting": "[12]", "result": "reduced the activity post-exercise even more"}
    ]},
    {"molecule": "CC(N/C(=N\\C#N)Nc1ccncc1)C(C)(C)C", "note": "(stereo not shown) [pinacidil]", "values": [
      {"measurement": "mean arterial pressure", "setting": "[13]", "result": "decreases mean arterial pressure"}
    ]},
    {"molecule": "O=[N+]([O-])c1cccc2c(Br)n[nH]c12", "note": "[3-bromo-7-nitroindazole]", "values": [
      {"measurement": "post-exercise activity", "setting": "[9]", "result": "caused post-exercise inactivity"}
    ]},
    {"molecule": "CNC(=N)NCCC[C@H](N)C(=O)O", "note": "[L-NMMA]", "values": [
      {"measurement": "resting blood flow", "setting": "[14]", "result": "reduces resting blood flow"}
    ]},
    {"molecule": "sarafotoxin 6c", "values": [
      {"measurement": "post-exercise activity", "setting": "[9]", "result": "caused post-exercise inactivity"}
    ]}
  ]
}
